This is an account of results in patent US20250289806A1, “COMPOUNDS FOR PROLIFERATIVE DISORDERS” (UNIVERSITY OF MIAMI, priority 2022, published 2025).

Molecules are shown by their SMILES. Read-outs that look alike come from different tables or passages of the source.

One assay deals with T1, STK17A (Homo sapiens, UniProt Q9UEE5).
T1 construct: purchased Reaction Biology Corporation
T1 sequence (Q9UEE5 1-414): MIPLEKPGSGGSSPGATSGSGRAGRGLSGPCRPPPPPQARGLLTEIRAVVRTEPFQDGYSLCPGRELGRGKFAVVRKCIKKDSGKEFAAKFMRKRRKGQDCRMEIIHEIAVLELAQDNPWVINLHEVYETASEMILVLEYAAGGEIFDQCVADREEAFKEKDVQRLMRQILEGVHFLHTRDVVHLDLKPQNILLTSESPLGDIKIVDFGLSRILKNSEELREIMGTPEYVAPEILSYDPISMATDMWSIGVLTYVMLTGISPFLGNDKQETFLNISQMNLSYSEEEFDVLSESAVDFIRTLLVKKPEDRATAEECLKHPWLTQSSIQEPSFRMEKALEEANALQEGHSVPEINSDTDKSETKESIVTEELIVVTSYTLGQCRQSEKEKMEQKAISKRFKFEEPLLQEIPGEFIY
Put plainly: Enzymatic activity assay (Reaction Biology Corporation), STK17A. Format: biochemical. The method, then: (§1) All enzymatic assays and panel profiling studies are activity assays, which were carried out by Reaction Biology Corporation according to the company's protocols.

In the next assay the target is T2, MYLK4 (Homo sapiens, UniProt Q86YV6).
T2 construct: purchased Reaction Biology Corporation
T2 sequence (Q86YV6 1-388): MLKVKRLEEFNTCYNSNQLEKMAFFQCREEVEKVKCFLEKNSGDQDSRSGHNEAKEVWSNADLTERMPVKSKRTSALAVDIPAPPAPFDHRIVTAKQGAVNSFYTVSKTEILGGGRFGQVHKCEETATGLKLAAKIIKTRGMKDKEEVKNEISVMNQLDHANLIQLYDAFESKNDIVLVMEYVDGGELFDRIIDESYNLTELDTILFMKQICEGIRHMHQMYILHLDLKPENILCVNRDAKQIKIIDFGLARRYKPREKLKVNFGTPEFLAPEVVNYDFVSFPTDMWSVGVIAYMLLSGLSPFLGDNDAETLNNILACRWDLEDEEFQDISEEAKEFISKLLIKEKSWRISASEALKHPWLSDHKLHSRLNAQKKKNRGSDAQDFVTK
Put plainly: Enzymatic activity assay (Reaction Biology Corporation), MYLK4. Format: biochemical. The method, then: as §1

In a further assay the target is T3, DDR1 (Homo sapiens, UniProt Q08345).
T3 construct: purchased Reaction Biology Corporation
Briefly: Enzymatic activity assay (Reaction Biology Corporation), DDR1. Format: biochemical. The method, then:
as §1

For a further assay, the system named is U266B1. Briefly: Cell viability assay, U266B1. The format is cell-based. As to conditions: U266B1, multiple myeloma (Example 90 table).
The test system of a further assay is K562. Put plainly: Cell viability assay, K562. The format is cell-based. As to conditions: Homo sapiens; K562, chronic myeloid leukemia (Example 90 table).
The subject of a further assay is LP1. Put plainly: Cell viability assay, LP1. Format: cell-based. As to conditions: Homo sapiens, LP-1; LP1, multiple myeloma (Example 90 table).
For the next assay, the system named is SET-2. Put plainly: Cell viability assay, SET-2. As to conditions: Homo sapiens; SET-2, acute myeloid leukemia (Example 90 table). The format is cell-based.
The subject of the next assay is TF1. Put plainly: Cell viability assay, TF1. Format: cell-based. Particulars: Homo sapiens, TF-1; TF1, acute myeloid leukemia (Example 90 table).
The test system of the next assay is Jurkat. Put plainly: Cell viability assay, Jurkat. Format: cell-based. As to conditions: Homo sapiens, acute lymphoblastic leukemia (Example 90 table).
The test system of another assay is RS4; 11. Put plainly: Cell viability assay, RS4; 11. Format: cell-based. As to conditions: Homo sapiens, RS4-11; RS411, acute lymphoblastic leukemia (Example 90 table).
The test system of another assay is BJAB. Briefly: Cell viability assay, BJAB. The format is cell-based. As to conditions: Homo sapiens, lymphoma (Example 90 table).
For another assay, the system named is HEL. Put plainly: Cell viability assay, HEL. The format is cell-based. As to conditions: Homo sapiens, acute myeloid leukemia (Example 90 table).
The next assay has as its system HEK293T. Briefly: Cell viability assay, HEK293T (non-cancer cell line). The format is cell-based. Particulars: Homo sapiens, HEK-293T, non-hematological cell line (Example 90 table).
The test system of a further assay is KMS12PE. Put plainly: Cell viability assay, KMS12PE. The format is cell-based. Particulars: Homo sapiens, KMS-12-PE, multiple myeloma (Example 90 table).
Another assay concerns SKMM2. Briefly: Cell viability assay, SKMM2. The format is cell-based. As to conditions: Homo sapiens, SK-MM-2; SKMM2, multiple myeloma (Example 90 table).
A further assay relates to THP-1. Briefly: Cell viability assay, THP-1. Format: cell-based. As to conditions: Homo sapiens; THP-1, acute myeloid leukemia (Example 90 table).
The subject of the next assay is MM-M1. Briefly: Cell viability assay, MM-M1. The format is cell-based. Particulars: MM-M1, multiple myeloma (Example 90 table).
In another assay the test system is MEC-1. Briefly: Cell viability assay, MEC-1. Format: cell-based. Particulars: Homo sapiens, MEC1; MEC-1, lymphoma (Example 90 table).
For another assay, the system named is HL-60. Put plainly: Cell viability assay, HL-60. Format: cell-based. Particulars: Homo sapiens, HL-60; HL60, acute myeloid leukemia (Example 90 table).
A further assay relates to RIVA. Briefly: Cell viability assay, RIVA. Format: cell-based. Particulars: lymphoma (Example 90 table).
Another assay relates to SKNO-1. Briefly: Cell viability assay, SKNO-1. Format: cell-based. As to conditions: SKNO-1, acute myeloid leukemia (Example 90 table).
Another assay relates to RPMI8226. Briefly: Cell viability assay, RPMI8226. Format: cell-based. Particulars: Homo sapiens, RPMI-8226; RPMI8226, multiple myeloma (Example 90 table).
For another assay, the system named is OCI-AML3. Put plainly: Cell viability assay, OCI-AML3. The format is cell-based. Particulars: Homo sapiens, OCI-AML-3; OCI-AML3, acute myeloid leukemia (Example 90 table).
For a further assay, the system named is MV-4-11. Briefly: Cell viability assay, MV-4-11. Format: cell-based. As to conditions: Homo sapiens, MV4-11; MV-4-11, acute myeloid leukemia (Example 90 table).
For a further assay, the system named is Kasumi-1. Briefly: Cell viability assay, Kasumi-1. The format is cell-based. Particulars: Homo sapiens; Kasumi-1, acute myeloid leukemia (Example 90 table).
The subject of a further assay is OPM2. Put plainly: Cell viability assay, OPM2. As to conditions: Homo sapiens, OPM-2; OPM2, multiple myeloma (Example 90 table). The format is cell-based.
Another assay relates to MOLM-13. Put plainly: Cell viability assay, MOLM-13. Format: cell-based. Particulars: Homo sapiens; MOLM-13, acute myeloid leukemia (Example 90 table).
For the next assay, the system named is MOLT4. Briefly: Cell viability assay, MOLT4. Format: cell-based. As to conditions: Homo sapiens; MOLT-4, acute lymphoblastic leukemia (Example 90 table).
A further assay concerns KMS12BM. Put plainly: Cell viability assay, KMS12BM. Format: cell-based. As to conditions: Homo sapiens, KMS-12-BM, multiple myeloma (Example 90 table).
Setting [1] is: enzymatic activity assay, read-out: IC50 STK17A.
Setting [2] is: enzymatic activity assay, read-out: IC50 MYLK4.

T3 sequence (Q08345 19-913): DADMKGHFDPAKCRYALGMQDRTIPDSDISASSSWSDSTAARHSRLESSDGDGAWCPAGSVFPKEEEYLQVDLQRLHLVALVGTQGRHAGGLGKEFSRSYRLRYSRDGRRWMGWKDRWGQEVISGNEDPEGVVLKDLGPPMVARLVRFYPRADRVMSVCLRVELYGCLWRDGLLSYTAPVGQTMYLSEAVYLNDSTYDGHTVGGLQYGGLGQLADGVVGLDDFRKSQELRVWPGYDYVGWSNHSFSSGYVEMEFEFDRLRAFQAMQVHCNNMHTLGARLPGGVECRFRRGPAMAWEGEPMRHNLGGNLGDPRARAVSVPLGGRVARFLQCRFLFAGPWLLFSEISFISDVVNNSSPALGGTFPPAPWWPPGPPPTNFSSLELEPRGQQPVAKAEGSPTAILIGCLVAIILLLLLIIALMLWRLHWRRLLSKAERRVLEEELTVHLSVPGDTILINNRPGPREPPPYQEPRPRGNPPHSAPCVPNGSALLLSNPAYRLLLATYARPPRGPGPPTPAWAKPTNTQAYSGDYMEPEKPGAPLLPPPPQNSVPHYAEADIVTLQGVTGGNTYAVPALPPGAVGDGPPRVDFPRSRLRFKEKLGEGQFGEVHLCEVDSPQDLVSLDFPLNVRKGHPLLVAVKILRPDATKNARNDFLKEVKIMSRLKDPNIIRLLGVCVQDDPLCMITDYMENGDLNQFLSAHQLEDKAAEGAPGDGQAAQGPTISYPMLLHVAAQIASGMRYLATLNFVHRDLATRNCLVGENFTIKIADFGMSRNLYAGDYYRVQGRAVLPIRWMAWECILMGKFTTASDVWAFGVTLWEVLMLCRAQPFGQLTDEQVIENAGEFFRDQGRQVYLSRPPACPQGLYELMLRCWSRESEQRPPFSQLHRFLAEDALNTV

For `c1cc(-c2ccc3nc(N4CCCC4)ncc3c2)nc(Nc2ccc(N3CCNCC3)cc2)n1` [Example 1, N-(4-(piperazin-1-yl)phenyl)-4-(2-(pyrrolidin-1-yl)quinazolin-6-yl)pyrimidin-2-amine], the half-inhibitory concentration (IC50) – broadly, the concentration that inhibits the measured activity by half – was 0.05 to 0.1 µM on STK17A and under 0.05 µM on MYLK4.
Regarding `c1cc(-c2ccc3nc(N4CCCC4)ncc3c2)nc(Nc2ccc(N3CCOCC3)cc2)n1` [Example 2], the 50% inhibitory concentration (IC50) on STK17A (setting [1]) and against MYLK4 was under 0.05 µM each time.
Turning to `c1cc(-c2ccc3nc(N4CCCC4)ncc3c2)nc(Nc2cnn(C3CCNCC3)c2)n1` [Example 3], the IC50 was under 0.05 µM on STK17A (setting [1]), 0.05 to 0.1 µM at DDR1 and under 0.05 µM on MYLK4 (setting [2]).
Consider `c1cc(-c2ccc3nc(N4CCCC4)ncc3c2)nc(Nc2ccc(N3CCNCC3)nc2)n1` [Example 4], for which the half-inhibitory concentration (IC50) at STK17A (setting [1]) and on MYLK4 was under 0.05 µM in each case.
With `O=C(NC1CCNCC1)c1ccc(Nc2nccc(-c3ccc4nc(N5CCCC5)ncc4c3)n2)cc1` [Example 5], the half-maximal inhibitory concentration (IC50) at STK17A (setting [1]) is over 0.1 µM.
Still for that read-out and setting: in the case of `CC(C)NC(=O)c1cccc(Nc2nccc(-c3ccc4nc(N5CCCC5)ncc4c3)n2)c1` [Example 6] it was over 0.1 µM.
As to `CC(C)NC(=O)c1ccc(Nc2nccc(-c3ccc4nc(N5CCOCC5)ncc4c3)n2)cc1` [Example 20], the half-inhibitory concentration (IC50) is under 0.05 µM at STK17A (setting [1]), over 0.1 µM against DDR1 and 0.05 to 0.1 µM on MYLK4.
Turning to `c1cc(-c2ccc3nc(N4CCOCC4)ncc3c2)nc(Nc2ccc(N3CCNCC3)cc2)n1` [Example 26], the concentration for half-maximal inhibition (IC50) on STK17A (setting [1]) and at MYLK4 was under 0.05 µM each time.
In the case of `c1cc(-c2ccc3nc(N4CCOCC4)ncc3c2)nc(Nc2cnn(C3CCNCC3)c2)n1` [Example 27], the IC50 with U266B1 amounted to 12.6 µM; with K562, 8.71 µM; with LP1 it was 1.11 µM; with SET-2, 0.648 µM; in the assay with TF1 it was 15 µM; in the assay on Jurkat it was 6.14 µM. In addition, the half-inhibitory concentration (IC50) with RS4; 11 is 10.1 µM; in the assay on BJAB it was 12.1 µM; with HEL, over 100 µM; with HEK293T, over 100 µM; in the assay on KMS12PE, 2.81 µM; on STK17A (setting [1]) it was under 0.05 µM. Further, the IC50 in the assay on SKMM2 is 6.62 µM; in the assay with THP-1, 1.15 µM; in the assay with MM-M1 it was 8.07 µM; with MEC-1, 14.2 µM; in the assay with HL-60 it was 5 µM; with RIVA, 9.2 µM. In addition, the 50% inhibitory concentration (IC50) with SKNO-1 was 14.8 µM; in the assay with RPMI8226, 2.7 µM; in the assay with OCI-AML3 it was 0.886 µM; against DDR1 it was under 0.05 µM; in the assay on MV-4-11, 0.321 µM; in the assay on Kasumi-1, 0.53 µM. The IC50 at MYLK4 (setting [2]) was under 0.05 µM; in the assay with OPM2, 6.85 µM; in the assay on MOLM-13 it was 0.196 µM; in the assay on MOLT4, over 100 µM; with KMS12BM, 2.81 µM.
In the case of `OCCn1cc(Nc2nccc(-c3ccc4nc(N5CCOCC5)ncc4c3)n2)cn1` [Example 28], the half-inhibitory concentration (IC50) at STK17A (setting [1]) and at MYLK4 (setting [2]) was under 0.05 µM in each case.
`OCCN1CCC(n2cc(Nc3nccc(-c4ccc5nc(N6CCOCC6)ncc5c4)n3)cn2)CC1` [Example 29]: the IC50 at STK17A (setting [1]) and against DDR1 was under 0.05 µM in each case.
